# Structures can show the parent of a compound that is named as a salt.
# How the values were obtained:
# [1] = target: T1, proMMP9(20-445;ΔFnII) (SEQ ID NO:6) (Homo sapiens, UniProt P14780, DEL216-390); test: ThermoFluor with proMMP9(20-445;ΔFnII); conditions: read-out: proMMP9(20-445; ΔFnII) (SEQ ID NO: 6) binding
# T1 construct: start methionine (N); made in house; host or cells: E. coli BL21(DE3) RIL
# T1 sequence (P14780 with tags, fused parts or gaps DEL216-390): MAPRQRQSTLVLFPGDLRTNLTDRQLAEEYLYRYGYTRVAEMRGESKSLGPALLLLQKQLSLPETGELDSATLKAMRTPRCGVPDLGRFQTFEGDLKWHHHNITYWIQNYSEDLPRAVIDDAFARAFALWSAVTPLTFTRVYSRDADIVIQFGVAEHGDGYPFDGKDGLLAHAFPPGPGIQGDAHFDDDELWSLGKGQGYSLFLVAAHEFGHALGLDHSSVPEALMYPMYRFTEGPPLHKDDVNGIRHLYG
# Experimental: (§1) The ThermoFluor® (TF) assay is a 384-well plate-based binding assay that measures thermal stability of proteins (Biomol Screen 2001, 6, 429-40; Biochemistry 2005, 44, 5258-66). The experiments were carried out using instruments available from Johnson & Johnson Pharmaceutical Research & Development, LLC. TF dye used in all experiments was […] (1,8-ANS) (Invitrogen: A-47).
# (§2) Compounds were arranged in a pre-dispensed plate (Greiner Bio-one: 781280), wherein compounds were serially diluted in 100% DMSO across 11 columns within a series. Columns 12 and 24 were used as DMSO reference and contained no compound. For multiple compound concentration-response experiments, the compound aliquots (50 nL) were robotically predispensed directly into black 384-well polypropylene PCR microplates (Abgene: TF-0384/k) using a Cartesian Hummingbird liquid handler (DigiLab, Holliston, Mass.). Following compound dispense, protein and dye solutions were added to achieve the final assay volume of 3 μL. The assay solutions were overlayed with 1 μL of silicone oil (Fluka, type DC 200: 85411) to prevent evaporation.
# (§3) Assay plates were robotically loaded onto a thermostatically controlled PCR-type thermal block and then heated from 40 to 90° C. at a ramp-rate of 1° C./min for all experiments. Fluorescence was measured by continuous illumination with UV light (Hamamatsu LC6) supplied via fiber optics and filtered through a band-pass filter (380-400 nm; >6 OD cutoff). Fluorescence emission of the entire 384-well plate was detected by measuring light intensity using a CCD camera (Sensys, Roper Scientific) filtered to detect 500±25 nm, resulting in simultaneous and independent readings of all 384 wells. A single image with 20-sec exposure time was collected at each temperature, and the sum of the pixel intensity in a given area of the assay plate was recorded vs temperature and fit to standard equations to yield the Tm (J Biomol Screen 2001, 6, 429-40).
# (§4) Thermodynamic parameters necessary for fitting compound binding for each proMMP were estimated by differential scanning calorimetry (DSC) and from ThermoFluor® data. The heat capacity of unfolding for each protein was estimated from the molecular weight and from ThermoFluor® dosing data.
# ThermoFluor® with proMMP9(20-445;ΔFnII) (SEQ ID NO:6)
# The protein sample preparations included a desalting buffer exchange step via a PD-10 gravity column (GE Healthcare). The desalting buffer exchange was performed prior to diluting the protein to the final assay concentration of 2.8 μM proMMP9(20-445;ΔFnII) (SEQ ID NO:6). The concentration of proMMP9(20-445;ΔFnII) (SEQ ID NO:6) was determined spectrophotometrically based on a calculated extinction coefficient of ε280=39880 M^−1cm^−1, a calculated molecular weight of 28.2 kDa, and calculated pI of 5.5. ThermoFluor® reference conditions were define as follows: 80 μg/mL (2.8 μM) proMMP9(20-445;ΔFnII) (SEQ ID NO:6), 50 μM 1,8-ANS, pH 7.0 Buffer (50 mM HEPES pH 7.0, 100 mM NaCl, 0.001% Tween-20, 2.5 mM MgCl2, 300 μM CaCl2). The thermodynamic parameters for proMMP9(20-445;ΔFnII) (SEQ ID NO:6) are as follows: Tm (° C.)=72 (+/−0.1), ΔUH(Tm) (cal mol^−1)=160000(+/−5000), ΔUS(Tm) (cal mol^−1 K^−1)=434, ΔUCp (cal mol^−1 K^−1)=2400.
# [2] = target: T2, proMMP9(67-444;ΔFnII) (SEQ ID NO:5) (Homo sapiens, UniProt P14780, DEL216-390); test: ThermoFluor with proMMP9(67-444;ΔFnII); conditions: read-out: proMMP9(67-444; ΔFnII) (SEQ ID NO: 5) binding
# T2 construct: start methionine (N); made in house; host or cells: E. coli BL21(DE3) RIL
# T2 sequence (P14780 with tags, fused parts or gaps DEL216-390): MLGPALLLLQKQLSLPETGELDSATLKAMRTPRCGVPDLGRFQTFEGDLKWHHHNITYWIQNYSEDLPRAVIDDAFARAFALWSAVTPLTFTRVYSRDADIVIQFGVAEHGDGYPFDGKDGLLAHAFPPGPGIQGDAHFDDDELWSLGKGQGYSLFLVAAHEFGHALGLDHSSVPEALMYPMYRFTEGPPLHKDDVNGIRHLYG
# Experimental: as §1, §2, §3, §4
# ThermoFluor® with proMMP9(67-444;ΔFnII) (SEQ ID NO:5)
# The protein sample preparations had to include a desalting buffer exchange step via a PD-10 gravity column (GE Healthcare). The desalting buffer exchange was performed prior to diluting the protein to the final assay concentration of 3.5 μM proMMP9(67-444;ΔFnII) (SEQ ID NO:5). The concentration of proMMP9(67-444;ΔFnII) (SEQ ID NO:5) was determined spectrophotometrically based on a calculated extinction coefficient of ε280=33900 M^−1cm^−1, a calculated molecular weight of 22.6 kDa, and calculated pI of 5.20. ThermoFluor® reference conditions were defined as follows: 80 μg/mL (3.5 μM) proMMP9(67-444;ΔFnII) (SEQ ID NO:5), 50 μM 1,8-ANS, pH 7.0 Buffer (50 mM HEPES pH 7.0, 100 mM NaCl, 0.001% Tween-20, 2.5 mM MgCl2, 300 μM CaCl2). The thermodynamic parameters for proMMP9(67-444;ΔFnII) (SEQ ID NO:5) are as follows: Tm (° C.)=63 (+/−0.1), ΔUH(Tm) (cal mol^−1)=105000(+/−5000), ΔUS(Tm) (cal mol^−1 K^−1)=450, […].
# [3] = target: T3, full-length proMMP9(1-707) (SEQ ID NO:1) (Homo sapiens, UniProt P14780, R574P); test: proMMP9/MMP3 P126 Activation Assay; type: biochemical; conditions: proMMP9(1-707) from HEK293 cells activated by catalytic MMP3
# T3 construct: made in house; host or cells: HEK293 (proMMP9, secreted); E. coli (MMP3)
# Experimental: proMMP9/MMP3 P126 Activation Assay
# The reaction volume was 50 μL. […] Reactivity of residual MMP3 towards P-126 substrate was minimal under these conditions.
# [4] = target: T4, proMMP13(1-268) (SEQ ID NO:7) (Homo sapiens, UniProt P45452); test: ProMMP13/Plasmin P126 Activation Assay; type: biochemical; conditions: proMMP13(1-268) activated by plasmin
# T4 construct: 6×-histidine tag (C); made in house; host or cells: HEK293 (transient transfection, secreted)
# Experimental: ProMMP13/Plasmin P126 Activation Assay
# On the day of assay, proMMP13(1-268) (SEQ ID NO:7) purified from HEK293 cells and plasmin were diluted to 160 nM and 320 nM, respectively, in assay buffer. The reaction volume was 50 μL. […] The plate was sealed and incubated for 40 min at 37° C. […] Plasmin was not reactive towards P-126 substrate under these conditions.
# T3 sequence (P14780 20-707 R574P): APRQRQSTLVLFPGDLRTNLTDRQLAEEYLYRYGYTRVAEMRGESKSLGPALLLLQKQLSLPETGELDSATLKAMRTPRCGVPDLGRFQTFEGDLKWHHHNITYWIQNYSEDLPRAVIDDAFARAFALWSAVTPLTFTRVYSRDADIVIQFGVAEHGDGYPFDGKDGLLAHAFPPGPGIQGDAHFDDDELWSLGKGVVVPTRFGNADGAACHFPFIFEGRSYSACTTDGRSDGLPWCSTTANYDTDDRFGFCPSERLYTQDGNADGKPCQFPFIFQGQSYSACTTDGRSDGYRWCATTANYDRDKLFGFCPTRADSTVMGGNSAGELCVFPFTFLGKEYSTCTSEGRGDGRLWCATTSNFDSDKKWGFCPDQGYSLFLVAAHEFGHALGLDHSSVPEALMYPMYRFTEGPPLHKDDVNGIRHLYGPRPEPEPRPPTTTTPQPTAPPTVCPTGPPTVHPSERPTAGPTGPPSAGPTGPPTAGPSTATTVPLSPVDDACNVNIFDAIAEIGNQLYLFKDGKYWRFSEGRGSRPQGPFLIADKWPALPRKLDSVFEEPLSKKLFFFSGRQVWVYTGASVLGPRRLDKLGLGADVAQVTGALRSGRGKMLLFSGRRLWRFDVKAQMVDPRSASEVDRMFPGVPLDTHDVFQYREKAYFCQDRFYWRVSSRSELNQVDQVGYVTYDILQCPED
Structure (SMILES),Kd [1] [nM],Kd [2] [nM],IC50 [3] [nM],IC50 [4] [nM]
"CC(C)Oc1ccc(C(N)=O)cc1Nc1nc(-c2ccc(CN3CCN(C4CC4)CC3)cc2)cs1 [Example 50, 3-((4-(4-((4-cyclopropylpiperazin-1-yl)methyl)phenyl)thiazol-2-yl)amino)-4-isopropoxybenzamide.TFA]",22,100,49,680
"CCN1CCN(c2ccc(-c3csc(Nc4cc(S(N)(=O)=O)ccc4OC(C)C)n3)cc2)CC1 [Example 4, 3-((4-(4-(4-Ethylpiperazin-1-yl)phenyl)thiazol-2-yl)amino)-4-isopropoxybenzenesulfonamide.TFA]",110,100,85,–
"CC(C)Oc1ccc(S(N)(=O)=O)cc1Nc1nc(-c2ccc(OCCN3CCOCC3)cc2)cs1 [Example 28, 4-Isopropoxy-3-((4-(4-(2-morpholinoethoxy)phenyl)thiazol-2-yl)amino)benzenesulfonamide.TFA]",75,110,100,–
"CC(C)Oc1ccc(C(N)=O)cc1Nc1nc(-c2ccc(CN3CCC(F)CC3)cc2)cs1 [Example 54, 3-((4-(4-((4-fluoropiperidin-1-yl)methyl)phenyl)thiazol-2-yl)amino)-4-isopropoxybenzamide.TFA]",31,110,95,–
"CCN1CCN(c2ccc(-c3csc(Nc4cc(C(N)=O)ccc4OC(C)C)n3)cc2)CC1 [Example 9, 3-((4-(4-(4-Ethylpiperazin-1-yl)phenyl)thiazol-2-yl)amino)-4-isopropoxybenzamide.TFA]",34,94,89,–
"COc1ccc(F)cc1Nc1nc(-c2ccc(CN3CCN(C4CC4)CC3)cc2)cs1 [Example 60, 4-(4-((4-cyclopropylpiperazin-1-yl)methyl)phenyl)-N-(5-fluoro-2-methoxyphenyl)thiazol-2-amine.TFA]",35000,9400,930,–
"CC(C)Oc1ccc(C(N)=O)cc1Nc1nc(-c2ccc(C3=CCNCC3)cc2)cs1 [Example 16, 4-Isopropoxy-3-((4-(4-(1,2,3,6-tetrahydropyridin-4-yl)phenyl)thiazol-2-yl)amino)benzamide.TFA]",14,33,49,–
"COc1cc(C)c(C(N)=O)cc1Nc1nc(-c2ccc(OCCN3CCC(F)CC3)cc2)cs1 [Example 39, 5-((4-(4-(2-(4-fluoropiperidin-1-yl)ethoxy)phenyl)thiazol-2-yl)amino)-4-methoxy-2-methylbenzamide.TFA]",550,640,720,–
"CC(C)Oc1ccc(S(N)(=O)=O)cc1Nc1nc(-c2ccc(CN3CCN(C4CC4)CC3)cc2)cs1 [Example 51, 3-((4-(4-((4-cyclopropylpiperazin-1-yl)methyl)phenyl)thiazol-2-yl)amino)-4-isopropoxybenzenesulfonamide.TFA]",36,79,110,–

# Other lines, results leading:
Kd [1] [nM],Kd [2] [nM],IC50 [3] [nM],IC50 [4] [nM],Structure (SMILES)
17,33,50,120,"CC(C)Oc1ccc(C(N)=O)cc1Nc1nc(-c2ccc(N3CCN(C(C)C)CC3)cc2)cs1 [Example 10, 4-Isopropoxy-3-((4-(4-(4-isopropylpiperazin-1-yl)phenyl)thiazol-2-yl)amino)benzamide.HCl]"
–,–,150,4000,"CC(C)Oc1ccc(S(N)(=O)=O)cc1Nc1nc(-c2ccc(CN3CCN(C(C)C)CC3)cc2)cs1 [Example 57, 4-isopropoxy-3-((4-(4-((4-isopropylpiperazin-1-yl)methyl)phenyl)thiazol-2-yl)amino)benzenesulfonamide.TFA]"
30,53,140,–,"CC(C)Oc1ccc(S(N)(=O)=O)cc1Nc1nc(-c2ccc(CN3CCC(F)CC3)cc2)cs1 [Example 55, 3-((4-(4-((4-fluoropiperidin-1-yl)methyl)phenyl)thiazol-2-yl)amino)-4-isopropoxybenzenesulfonamide.TFA]"
> 19000,2600,1300,–,"COc1ccc(F)cc1Nc1nc(-c2ccc(OCCN3CCC(F)CC3)cc2)cs1 [Example 68, N-(5-fluoro-2-methoxyphenyl)-4-(4-(2-(4-fluoropiperidin-1-yl)ethoxy)phenyl)thiazol-2-amine.TFA]"
56,210,250,–,"CC(C)Oc1ccc(C(N)=O)cc1Nc1nc(-c2ccc(CN3CCOCC3)cc2)cs1 [Example 58, 4-isopropoxy-3-((4-(4-(morpholinomethyl)phenyl)thiazol-2-yl)amino)benzamide.TFA]"
> 76000,2100,480,–,"COc1ccc(F)cc1Nc1nc(-c2ccc(OCCN3CCN(C4CC4)CC3)cc2)cs1 [Example 70, 4-(4-(2-(4-cyclopropylpiperazin-1-yl)ethoxy)phenyl)-N-(5-fluoro-2-methoxyphenyl)thiazol-2-amine.TFA]"

# — US20120302569A1, “PHENYL-THIAZOLYL INHIBITORS OF PRO-MATRIX METALLOPROTEINASE ACTIVATION” (priority 2011, published 2012)
